Earlier results, collected in PMC2981068 (Journal of medicinal chemistry, 2010).
Marks after values point to notes of the source that are not given here.

Legend:
[1] = tested on: E. faecalis (VanA, strain BM4166), vancomycin- and teicoplanin-resistant; details: footnotes d, ref [7]–[8], [4]
[2] = tested on: E. faecalis (VanB, strain ATCC 51299), vancomycin-resistant and teicoplanin-sensitive; details: footnotes d, ref [7]–[8], [4]
[3] = tested on: Enterocococci bacterial strains (VanA and VanB); details: resistant vs sensitive bacteria; ref [1d]
[4] = computationally determined, relative to 2 with ligand 3; ref [11]
[5] = tested on: Staphylococcus aureus (strain ATCC 25923), vancomycin-sensitive; details: reference not given, ref [1a],[6] as in b5

Substance	MIC E. faecalis (VanA) (value in parentheses) [1]	MIC E. faecalis (VanB) (value in parentheses) [2]	drop in antimicrobial activity on D-Ala to D-Lac change [3]	ΔΔGb cal, ligand 3 [4]	MIC for sensitive strain (comparator in text) [5]
Vancomycin [Compound 1]	2000 (2000) ^e μg/mL	125 µg/mL	1000 fold		
vancomycin aglycon [Compound 2]	640 (640) ^d, ^e μg/mL	80 µg/mL		0.0 (0.0) ^d kcal/mol	
chlorobiphenyl vancomycin [Compound 8]					0.03 µg/mL
